Test results from patent publication US6268478A, “Intracellular vitamin D binding protein” (Cedars-Sinai Medical Center, priority 1997, dated 2001).

Experiments:
[1] = molecular target: T1, human heat shock protein-70 (hsp70) (Homo sapiens, UniProt P0DMV8); test: Competitive ligand binding of [3H]25-hydroxyvitamin D3 to recombinant inducibly-expressed hsp70
T1 construct: purchased StressGen, Victoria, B.C., Canada
Experimental: (§1) Ligand Binding Analyses. The ability of the unfractionated 100,000×g supernatant extracts of B95-8 cells and individual column fractions of chromatographically-purified material to bind [^3 H]25-OHD3 in the presence or absence of increasing concentrations of radioinert compounds (see Table I) was performed by competitive protein binding assay as previously described in Gacad et al. Bone Min. Res. 8:27-35 (1993).
(§2) Briefly, unfractionated or post-FPLC fractions were incubated in ETD-0.5 M NaCl overnight at 4° C. with 4 nM [3H]25-OHD3 in the presence or absence of 1-100 nM unlabeled competitive ligand. Protein-bound [^3 H]25-OHD3 was separated from unbound sterol by incubation with dextran-coated charcoal. Specifically-bound 25-OHD3 was determined by subtracting the mean of duplicate determinations of binding in the presence of 100 nM radioinert competitive ligand from the mean of determinations of binding in the absence of added competitive ligand. Specific binding of 17β-[^3 H]estradiol as well as [^3 H]25-OHD3 to IDBP(s) was also determined in individual fractions eluting from hydroxyapatite chromatography. The binding assay conditions were the same as those stated above except that specific binding was determined in ETD-0.3 M Na2 HPO4 buffer (pH 6.8).
Inducibly-expressed, recombinant human heat shock protein-70 (hsp70) was purchased from StressGen, Victoria, B.C., Canada. […]

IDBP(s) = test: Specific binding of [3H]25-OHD3 and [3H]17β-estradiol in post-hydroxyapatite peak I and peak II fractions of B95-8 extract; parameters: species or system Callithrix jacchus (common marmoset); conditions: both peak I and peak II from hydroxyapatite chromatography; tracer ± 100 nM radioinert ligand
Experimental: as §2
On the basis of protein recovery, enrichment of bioactivity, ease of use, and resin available for FPLC and/or HPLC applications, three chromatographic supports, one each from the three different kinds of packing materials evaluated, were selected for serial chromatographic purification of IDBP(s): BPS-DE cellulose for anion exchange chromatography, phenyl sepharose (mid sub) for hydrophobic interaction chromatography, and HTP-hydroxyapatite for separation of proteins by their surface charge. […]

IDBP [2] = molecular target: T2, IDBP (Saguinus oedipus, UniProt Q9N1U2); test: 25-OHD3 binding activity of cells transiently transfected with plasmid expressing the IDBP coding region; parameters: species or system Callithrix jacchus (common marmoset)
Excerpt: The coding region of IDBP shown in FIG. 3 was cloned into pcDNA3.1 (Invitrogen). […] Control plasmid was the pcDNA3.1 vector without cloned insert.

[3] = tested on: ATP binding domain of IDBP; test: 25-OHD3 binding activity of cells transfected with construct encoding the IDBP ATP binding domain; parameters: species or system Callithrix jacchus (common marmoset); conditions: COS-7 and OMK gibbon cells transfected with ATP binding domain construct
Excerpt: This experiment was repeated with expression plasmids which encode different fragments of IDBP. The coding region of the cDNA contains a convenient Eco RI restriction site which divides the region encoding the deduced ATP binding from the deduced peptide binding domain and variable domain.

IDBP [4] = molecular target: T2, IDBP; test: Competitive displacement of [3H]25-OHD3 from IDBP in unfractionated 100,000×g supernatant extracts of B95-8 cells (competitive protein binding assay, dextran-coated charcoal); parameters: post-nuclear 100,000xg supernatant of B95-8 marmoset lymphoblasts and partly purified column fractions; species or system Callithrix jacchus (common marmoset)
Excerpt: Culture and Extraction of B95-8 Cells. The B-lymphoblastoid cell line B95-8 was obtained from the American Type Culture Collection (ATCC, Manassas, Va.). This cell line was established by EBV transformation of blood leukocytes from the vitamin D-resistant new world primate, Callithrix jacchus (common marmoset). The cell line was maintained in RPMI-1640 medium (Irvine Scientific, Irvine, Calif.) routinely supplemented with 10% fetal calf serum (FCS; Gemini BioProducts, Calabasas, Calif.), 100 units/ml penicillin, 100 μg/ml streptomycin, 2 mM L-glutamine (both from Gibco-BRL, Grand Island, N.Y.) in an atmosphere of 95% air-5% CO2.
Confluent cultures were harvested by agitation to dislodge clumps of lymphoblasts that were weakly adherent to the plastic flask. Harvested cells were pelleted and washed twice in ice cold phosphate-buffered saline (PBS; 20 mM Na2 HPO4 and 150 mM NaCl, pH 7.2). The pelleted cells were then resuspended in ETD buffer (1 mM EDTA, 10 mM Tris-HCl, 5 mM dithiothreitol, pH 7.4) containing 1 mM phenylmethylsulfonylflouride and homogenized by Polytron on ice in five 15-second bursts. Nuclei with associated nuclear steroid receptor proteins, were pelleted at 4,000×g for 30 minutes at 4° C. The post-nuclear supernatant of this spin was then subjected to high-speed centrifugation at 100,000×g for 1 hour at 4° C. The resulting "100,000×g supernatant" was either aliquoted and stored at […] for further study, used in competitive ligand binding analyses, or subjected to further purification as described below in Example II.
as §1, with “fractions of chromatographically-purified material to bind [^3 H]25-OHD3 in the presence or absence” left out
[…] […] […] […] The binding assay conditions were the same as those stated above except that specific binding was determined in ETD-0.3 M Na2 HPO4 buffer (pH 6.8).

T2 sequence (Q9N1U2 whole entry): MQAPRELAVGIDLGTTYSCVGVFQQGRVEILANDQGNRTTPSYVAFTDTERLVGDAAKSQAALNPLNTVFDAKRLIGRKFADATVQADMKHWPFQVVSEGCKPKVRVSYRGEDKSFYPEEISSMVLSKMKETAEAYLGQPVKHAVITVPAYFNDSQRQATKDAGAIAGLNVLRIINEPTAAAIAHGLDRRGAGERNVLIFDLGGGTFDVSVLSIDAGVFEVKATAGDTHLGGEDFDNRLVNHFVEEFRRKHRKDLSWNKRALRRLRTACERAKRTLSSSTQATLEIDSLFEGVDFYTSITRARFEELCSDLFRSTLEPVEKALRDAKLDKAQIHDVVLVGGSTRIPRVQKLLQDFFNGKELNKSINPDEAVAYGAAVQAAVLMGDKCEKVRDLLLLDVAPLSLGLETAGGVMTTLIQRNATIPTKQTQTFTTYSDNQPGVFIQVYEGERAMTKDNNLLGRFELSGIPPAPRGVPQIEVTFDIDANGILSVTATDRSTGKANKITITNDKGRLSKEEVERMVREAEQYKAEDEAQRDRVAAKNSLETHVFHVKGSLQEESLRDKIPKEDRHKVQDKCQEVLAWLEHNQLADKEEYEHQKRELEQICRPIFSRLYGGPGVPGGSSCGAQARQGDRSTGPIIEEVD
T1 sequence (P0DMV8 whole entry): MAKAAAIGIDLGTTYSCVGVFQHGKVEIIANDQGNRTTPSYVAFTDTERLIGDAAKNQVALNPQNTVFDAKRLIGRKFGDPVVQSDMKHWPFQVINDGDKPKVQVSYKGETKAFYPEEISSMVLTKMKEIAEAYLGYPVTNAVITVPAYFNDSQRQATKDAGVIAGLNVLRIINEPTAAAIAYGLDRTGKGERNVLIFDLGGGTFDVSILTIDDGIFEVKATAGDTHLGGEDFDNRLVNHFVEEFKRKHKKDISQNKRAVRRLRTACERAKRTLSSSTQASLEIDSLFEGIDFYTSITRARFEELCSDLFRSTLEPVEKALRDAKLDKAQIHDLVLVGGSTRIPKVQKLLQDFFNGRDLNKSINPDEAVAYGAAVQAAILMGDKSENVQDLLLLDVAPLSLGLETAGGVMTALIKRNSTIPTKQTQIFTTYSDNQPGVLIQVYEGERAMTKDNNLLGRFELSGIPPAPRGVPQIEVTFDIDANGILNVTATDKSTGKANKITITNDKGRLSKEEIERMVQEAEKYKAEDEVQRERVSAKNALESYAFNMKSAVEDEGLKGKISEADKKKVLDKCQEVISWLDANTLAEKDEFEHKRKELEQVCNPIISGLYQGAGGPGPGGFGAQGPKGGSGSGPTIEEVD

Compound: [^3 H]25-hydroxy vitamin D3 [[^3 H]25-OHD3]
- specific [3H]25-OHD3 binding activity of hsp70 ([1]; recombinant human inducibly-expressed hsp70): exhibited specific [^3 H]25-OHD3 binding activity

Compound: C=C1CC[C@H](O)C/C1=C/C=C1\CCC[C@]2(C)[C@@H]([C@H](C)CCCC(C)(C)O)CC[C@@H]12 [25-OHD3, 25-hydroxy vitamin D3]
- specific binding activity for 25-OHD3 relative to that of 17β-estradiol (IDBP(s)): approximately 2 fold
- IC (maximal displacement) ([1]; inducibly expressed hsp70, read-out: concentration of radioinert ligand required to achieve maximal displacement of [3H]25-hydroxyvitamin D3): 0.05 to 0.1 µM
- 25-OHD3 binding activity (IDBP [2]; Cos-7 cells transfected with IDBP coding region in pcDNA3.1): approximately 0.8 fmol/μg protein
- 25-OHD3 binding activity (IDBP [2]; OMK gibbon cells transfected with IDBP coding region in pcDNA3.1): approximately 1.0 fmol/μg protein
- 25-OHD3 binding activity [3]: exhibited enhanced 25-OHD3 binding activity
- ability to competitively displace [3H]25-OHD3 binding (FIG. 1A) (IDBP [4]; 100 nM competitor, 2 nM [3H]25-OHD3): roughly equivalent in their ability to competitively inhibit
- IC (maximal displacement) (IDBP [4]; IDBP, read-out: concentration of radioinert ligand required to achieve maximal displacement of [3H]25-hydroxyvitamin D3): 0.05 to 0.1 µM
